How the values were obtained:
Assay in all cases: AUC of viability dose-response curve (% viability x log10 dose units); higher = less sensitive
Conditions in all cases: 48 h
NOMO1 = test system: NOMO1
Method in brief: (§1)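 In 1536-well plates, leukemia cells adapted to each medium (500 or 1000 cells/well) were exposed for 48 h at 37°C to library compounds in DMSO across 11 threefold doses, 47 μM down to 0.79 nM. Viability was read by CellTiter-Glo One luminescence and normalised per plate to DMSO and cell-free wells. A four-parameter log-logistic fit over log10 doses was integrated by trapezoidal rule. This yielded the area under the curve, with over-full-viability curves scaled and quality-control failures dropped.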

P12-Ichikawa = test system: P12-Ichikawa
Method in brief: as §1

SEM cells = test system: SEM cells
Method in brief: as §1

[1] = RPMI 5 mM glucose + 10% dialyzed FBS

| SMILES | AUC of viability dose-response curve (NOMO1; HPLM + 10% dialyzed FBS) | AUC of viability dose-response curve (NOMO1; RPMI 5 mM glucose + 10% FBS) | AUC of viability dose-response curve (NOMO1; [1]) | AUC of viability dose-response curve (P12-Ichikawa; HPLM + 10% dialyzed FBS) | AUC of viability dose-response curve (P12-Ichikawa; RPMI 5 mM glucose + 10% FBS) | AUC of viability dose-response curve (P12-Ichikawa; [1]) | AUC of viability dose-response curve (SEM cells; HPLM + 10% dialyzed FBS) | AUC of viability dose-response curve (SEM cells; RPMI 5 mM glucose + 10% FBS) | AUC of viability dose-response curve (SEM cells; [1]) |
| --- | --- | --- | --- | --- | --- | --- | --- | --- | --- |
| CCOC(=O)N1c2ccc(C(F)(F)F)cc2[C@@H](N(Cc2cc(C(F)(F)F)cc(C(F)(F)F)c2)C(=O)OC)C[C@H]1CC | 434 | 460 | 470 | 449 | 466 | 471 | 462 | 460 | 468 |
| C[C@@H]1O[C@@H](O[C@H]2C[C@@H](O)[C@]3(CO)[C@H]4[C@H](O)C[C@]5(C)[C@@H](C6=CC(=O)OC6)CC[C@]5(O)[C@@H]4CC[C@]3(O)C2)[C@H](O)[C@H](O)[C@H]1O | 197 | 248 | 227 | 203 | 235 | 211 | 179 | 234 | 216 |
| O=C(CC12CC3CC(CC(C3)C1)C2)Nc1cccc2nc(NCCNCCO)ccc12 | 436 | 406 | 399 | 424 | 410 | 412 | 386 | 405 | 392 |
| COc1cc([C@@H]2c3cc4c(cc3[C@H](O)[C@H]3COC(=O)[C@@H]23)OCO4)cc(OC)c1OC | 304 | 280 | 292 | 271 | 279 | 291 | 266 | 280 | 249 |
| C[C@@H]1CN(Cc2ccc(F)cc2)[C@@H](C)CN1C(=O)c1cc2c(C(=O)C(=O)N(C)C)cn(C)c2cc1Cl | 467 | 474 | 475 | 471 | 472 | 471 | 462 | 413 | 449 |
| CC(C)=CCC/C(C)=C/CC/C(C)=C/CSc1ccccc1C(=O)O | 393 | 432 | 395 | 402 | 366 | 390 | 348 | 355 | 374 |
| C[C@]12Cc3cn[nH]c3C[C@@H]1CC[C@@H]1[C@@H]2CC[C@@]2(C)[C@H]1CC[C@]2(C)O | 458 | 467 | 442 | 459 | 466 | 463 | 414 | 473 | 473 |
| O=C(CCCCCCC(=O)Nc1ccc([C@H]2O[C@@H](CSc3nc(-c4ccccc4)c(-c4ccccc4)o3)C[C@@H](c3ccc(CO)cc3)O2)cc1)NO | 405 | 406 | 403 | 378 | 376 | 362 | 398 | 397 | 391 |
| c1ccc2c(Cc3c[nH]c4ccccc34)c[nH]c2c1 | 440 | 434 | 444 | 434 | 420 | 417 | 385 | 396 | 376 |
| C[C@@H](NCCCc1cccc(C(F)(F)F)c1)c1cccc2ccccc12 | 455 | 418 | 447 | 455 | 455 | 439 | 467 | 458 | 445 |
| N[S+](=O)([O-])c1cc2c(cc1Cl)NC(C(Cl)Cl)N[S+]2(=O)[O-] (configuration not stated) | 450 | 453 | 442 | 456 | 459 | 467 | 431 | 450 | 447 |
| C[C@H](CCC(=O)O)[C@H]1CCC2C3C[C@H](O)[C@@H]4C[C@H](O)CC[C@]4(C)C3CC[C@@]21C (some centres not stated) | 449 | 458 | 459 | 454 | 450 | 463 | 452 | 452 | 469 |
| CCN1C[C@H](C)[N]2C(=C(O)C3=C2\C(=N/N(CC4=CC=C(F)C(=C4)Cl)C3=O)C(=O)NC)C1=O | 408 | 442 | 427 | 458 | 460 | 459 | 440 | 409 | 443 |
| COC(=O)Nc1nc2cc(C(=O)c3ccc(F)cc3)ccc2[nH]1 | 372 | 426 | 402 | 365 | 377 | 388 | 343 | 363 | 374 |
| CC(C)(S)[C@@H](N)C(=O)O | 469 | 472 | 465 | 471 | 468 | 476 | 439 | 431 | 455 |
| CC[S+](=O)([O-])Nc1ccc2c(c1)/C(=C(/Nc1ccc(CN3CCCCC3)cc1)c1ccccc1)C(=O)N2 | 335 | 314 | 323 | 276 | 274 | 297 | 223 | 232 | 230 |
| COc1ccc(C(=O)c2c(C)n(CCN3CCOCC3)c3ccccc23)cc1 | 466 | 439 | 430 | 456 | 463 | 434 | 459 | 400 | 449 |

| SMILES | AUC of viability dose-response curve (NOMO1; HPLM + 10% dialyzed FBS) | AUC of viability dose-response curve (NOMO1; RPMI 5 mM glucose + 10% FBS) | AUC of viability dose-response curve (NOMO1; [1]) | AUC of viability dose-response curve (P12-Ichikawa; HPLM + 10% dialyzed FBS) | AUC of viability dose-response curve (P12-Ichikawa; RPMI 5 mM glucose + 10% FBS) | AUC of viability dose-response curve (P12-Ichikawa; [1]) | AUC of viability dose-response curve (SEM cells; HPLM + 10% dialyzed FBS) | AUC of viability dose-response curve (SEM cells; RPMI 5 mM glucose + 10% FBS) | AUC of viability dose-response curve (SEM cells; [1]) |
| --- | --- | --- | --- | --- | --- | --- | --- | --- | --- |
| O=C/1NC(=O)C(=C1C2=CN=C3C=CC=C[N]23)/C4=C[N]5CCN(CC6=C5C4=CC=C6)C(=O)N7CCOCC7 | 470 | 465 | 462 | 334 | 301 | 370 | 138 | 153 | 151 |
| CCN(CCO)CCCOc1ccc2c(Nc3cc(CC(=O)Nc4cccc(F)c4)[nH]n3)ncnc2c1 | 372 | 329 | 355 | 256 | 259 | 287 | 302 | 280 | 282 |
| CC[N+](CC)(CC)CCOc1cccc(OCC[N+](CC)(CC)CC)c1OCC[N+](CC)(CC)CC | 400 | 439 | 445 | 451 | 455 | 456 | 423 | 463 | 477 |
| CC1=C(/C=C/C(C)=C/C=C/C(C)=C\C(=O)O)C(C)(C)CCC1 | 438 | 408 | 420 | 445 | 400 | 415 | 405 | 450 | 379 |
| C=C1C(=O)OC(CCCCCCCC)C1C(=O)O (configuration not stated) | 474 | 462 | 464 | 468 | 467 | 468 | 461 | 457 | 468 |
| CCOc1cc2ncc(C#N)c(Nc3ccc(F)c(Cl)c3)c2cc1NC(=O)/C=C/CN(C)C | 323 | 385 | 353 | 312 | 338 | 320 | 321 | 300 | 312 |
| CC1(CN2CCC(n3c(=O)[nH]c4ccccc43)CC2)OCc2ccccc2-n2cccc21 (configuration not stated) | 397 | 452 | 438 | 470 | 469 | 458 | 455 | 449 | 470 |
| N#CC(c1ccnc(NCCc2cccnc2)n1)c1nc2ccccc2s1 (configuration not stated) | 469 | 475 | 450 | 467 | 473 | 470 | 454 | 448 | 468 |
| OC[C@H]1O[C@H](C[C@@H]1O)N2\C=C(F)/C(=O)NC2=O | 250 | 347 | 214 | 244 | 298 | 259 | 243 | 352 | 198 |
| N#Cc1ccc(Oc2ccc3c(c2)COB3O)cc1 | 413 | 463 | 466 | 425 | 463 | 460 | 458 | 458 | 461 |
| CC(C)=CCC/C(C)=C/CC/C(C)=C/CC/C(C)=C/CC/C(C)=C/CC/C(C)=C/CC/C(C)=C/CC/C(C)=C/CC/C(C)=C/CO | 450 | 462 | 455 | 467 | 457 | 465 | 475 | 436 | 431 |
| N#C/C(=C\c1ccc(O)c(O)c1)C(=O)NCc1ccccc1 | 446 | 447 | 460 | 448 | 436 | 421 | 447 | 440 | 440 |
| C[N]1C=C(C2=CC=CC=C12)\C3=C(\C(=O)NC3=O)C4=C[N](C5CCN(CC5)CC6=NC=CC=C6)C7=C4C=CC=C7 | 458 | 424 | 445 | 472 | 475 | 472 | 461 | 446 | 454 |
| Cc1ccc(C(=O)Nc2cccc(C(F)(F)F)c2)cc1-c1ccc2nc(NCCN3CCOCC3)ncc2c1 | 384 | 388 | 384 | 418 | 408 | 408 | 384 | 378 | 378 |
| N[C@H]2CN(CC12CC1)c3c(F)cc4c(c3Cl)[N@@](C=C(C4=O)C(=O)O)C5C[C@H]5F (some centres not stated) | 420 | 387 | 413 | 439 | 417 | 395 | 412 | 431 | 398 |
| COc1cc2ncn(-c3cc(OCc4ccccc4[S+](C)(=O)[O-])c(C#N)s3)c2cc1OC | 443 | 435 | 457 | 450 | 450 | 428 | 457 | 461 | 470 |
